The target of experiment [1] is T1, GLP-1 receptor (Rattus norvegicus, UniProt P32301).
T1 construct: from tissue; host or cells: live rat; brain regions (cerebellum, cortex, hippocampus, hypothalamus, brain stem) and brain microvasculature
T1 sequence (P32301 22-463): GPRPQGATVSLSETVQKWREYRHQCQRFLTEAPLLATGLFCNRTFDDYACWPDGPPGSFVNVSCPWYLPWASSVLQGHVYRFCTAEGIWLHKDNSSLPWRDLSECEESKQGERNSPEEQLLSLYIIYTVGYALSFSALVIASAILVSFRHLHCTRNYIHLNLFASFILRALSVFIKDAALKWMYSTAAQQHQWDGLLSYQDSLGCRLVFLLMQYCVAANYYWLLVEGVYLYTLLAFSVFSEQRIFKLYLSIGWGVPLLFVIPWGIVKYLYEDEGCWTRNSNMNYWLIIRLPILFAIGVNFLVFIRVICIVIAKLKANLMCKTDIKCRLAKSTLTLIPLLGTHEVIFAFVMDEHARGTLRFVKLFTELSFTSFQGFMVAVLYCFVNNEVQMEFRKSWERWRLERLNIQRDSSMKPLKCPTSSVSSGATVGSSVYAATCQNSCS
The experiment in a line: Effect of GLP-1 receptor antagonist infusion on brain uptake of labeled GLP-1 or exendin-4. The note with it: exendin-(9-39) 30 nmol/kg/min for 20 min. Format: in vivo. On the procedure: Rats received a systemic infusion of either saline or exendin-(9-39) (GLP-1 receptor antagonist, 30 nmol/kg/min, Abcam, Cambridge, United Kingdom) via the jugular vein catheter for 20 min (Figure 1A). In the last 10 min, rats also received 30 pmol/kg/min of either GLP-1-FAM (AnaSpec, Fremont, CA, United States) or exendin-4-FAM (AnaSpec, Fremont, CA, United States) together with Dextran-TRITC (Sigma-Aldrich, St. Louis, MO, United States) (70 kD, vascular space marker, 30 pmol/kg/min). […] After collecting plasma samples, rats were sacrificed via anesthetic overdose and various brain regions (cerebellum, cortex, hippocampus, hypothalamus, and brain stem) collected, homogenized and lysed in lysis buffer. Fluorescence from TRITC and FAM were measured in both plasma and brain lysates. Protein concentrations were determined in the brain lysates. Brain uptake of GLP-1-FAM and exendin-4-FAM were calculated using the following formula:
Tissue fluorescence [FAM]/Tissue weight (μg)−TissueFluorescence [TRITC]/Weight(μg)/PlasmaFluorescence [TRITC]/200(μL)×Plasma Fluorescence [FAM]/200μL
FIGURE 1 GLP-1 and GLP-1 analog exendin-4 enter various brain regions via GLP-1 receptor-mediated process. (A) Protocol. […]

In experiment [2] the test system is Rat brain microvascular endothelial cells (RBMECs). The experiment in a line: Endothelial cell uptake of GLP-1-FAM. Format: cell-based. Here is the method:
Rat brain microvascular endothelial cells (RBMECs; Cell Applications, San Diego, CA, United States) were cultured on a cover slip in rat brain endothelial cell growth medium. After reaching confluency, cells were pre-treated with vehicle (PSS buffer), exendin 9-39 (10 nM) or H89 (Sigma-Aldrich, St. Louis, MO, United States) (10 μM) for 30 min or forskolin (Sigma-Aldrich, St. Louis, MO, United States) (10 μM) for 5 min. Cells were then incubated with GLP-1-FAM at either 10, 100 or 1,000 pM for 3 min at 37°C. DAPI was used to stain the nucleus. After fixation and washing three times with cold TBST (5 min each time), cell images were captured using confocal microscope and fluorescence intensity measured using ImageJ software^1. FAM signal from surface binding of FAM was examined by incubating cells with GLP-1-FAM at 4 or 37°C for 3 min, or free FAM (10, 100, and 1,000 pM) at 37°C for 3 min.
FIGURE 5 GLP-1 uptake by RBMECs is GLP-1 receptor and PKA dependent. RBMECs were pretreated with vehicle (PSS buffer, A,E,I), Exendin 9-39 (10 nM, B,F,J) or H89 (10 μM, C,G,K) for 30 min. Cells were then incubated with GLP-1-FAM at 10, 100 pM or 1 nM for 3 min. DAPI was used to stain the nucleus. Images were captured using confocal microscope. Fluorescence density was analyzed using ImageJ. (D,H,L) Quantitative analysis (n = 3, *p < 0.01, vs. vehicle, Student’s t test). GLP-1R – GLP-1 receptor.
FIGURE 6 cAMP agonist increases GLP-1 uptake by RBMECs. (A) RBMECs were incubated with GLP-1-FAM at 10 pM for 3 min with or without 10 μM forskolin. DAPI was used to stain the nucleus. Images was captured using confocal microscope. Fluorescence density was analyzed using ImageJ. (B) quantitative analysis of the images (n = 6, *p < 0.05, vs. vehicle, Student’s t test).

Experiment [3] deals with RBMEC and astrocyte barrier. Put plainly: Trans-endothelial GLP-1 transport (Transwell artificial BBB). Format: in vitro ADME, rat. The note with it: exendin-(9-39) 100 nM, 10 min pre-treatment and during transport; GLP-1-FAM 100 pM; n = 7, p < 0.01. On the procedure: The trans-endothelial GLP-1 transport was examined using a Transwell system that mimics the BBB in that RBMECs were co-cultured with astrocytes as illustrated in Figure 7A and previously described ([Gaillard et al., 2001]). Briefly, astrocytes (Thermo Fisher Scientific, Waltham, MA, United States) were seeded on the bottom and RBMECs were then seeded onto the top of the Transwell insert (6.5 mm diameter, 1 μm pore size, polyester membrane; Corning, Corning, NY, United States). Trans-endothelial electrical resistance was monitored using a volt-ohmmeter (EVOM; WPI, Sarasota, FL, United States) and EndOhm chamber (EndOhm; WPI). When the trans-endothelial electrical resistance reached its peak, the insert with double cell layers was washed twice at 37°C with PBS buffer. […] The amount of GLP-1-FAM or inulin-FITC transported to the lower chamber was determined by measuring FAM and FITC fluorescence in the lower chamber at 5, 10, and 30 min. Inulin-FITC transport was used to correct for paracellular transport and the amount of trans-endothelial transport of GLP-1-FAM was calculated using the formula:
Transcellular transport (%)=Fluorescence [FAM]/Reference [FAM]×100−Fluorescence [FITC]/Reference [FITC]×100
Reference refers to fluorescence in the lower chamber at the specified time point when the Transwell inserts had no cells seeded. To determine if this trans-endothelial transport is dose-dependent, 10, 100, and 1,000 pM GLP-1-FAM or inulin-FITC (with DDP-4 inhibitor) was loaded into the upper chamber, the amount of GLP-1-FAM or inulin-FITC in the lower chamber was determined at 10 min, and trans-endothelial transport of GLP-1 was calculated.
FIGURE 7 Trans-endothelial transport of GLP-1 is a GLP-1 receptor-mediated process. […] GLP-1-FAM or inulin-FITC transport to the lower chamber was determined by measuring FAM and FITC fluorescence in the lower chamber. […]

Where [4] appears, read: pre-treatment 30 min with exendin 9-39 10 nM or H89 10 μM, GLP-1-FAM 10, 100 or 1,000 pM for 3 min at 37°C, n = 3, p < 0.01 vs vehicle.

Consider exendin-(9-39), for which the “effect on amount of GLP-1-FAM fluorescence in various brain regions” value in experiment [1] (GLP-1-FAM 30 pmol/kg/min in last 10 min, n = 7, p < 0.05) was “markedly decreased”. Further, in experiment [1] (exendin-4-FAM 30 pmol/kg/min in last 10 min, n = 6, p < 0.05), the “effect on exendin-4-FAM fluorescence in various brain regions” value is listed as “almost completely abolished”. The “effect on RBMEC uptake of GLP-1-FAM” value in experiment [2] (setting [4]) was “blunted”. Besides, in experiment [3], the “effect on trans-endothelial transport of labeled GLP-1” value is listed as “inhibited”.
For the molecule `O=S(=O)(NCCNC/C=C/c1ccc(Br)cc1)c1cccc2cnccc12` [H89], the “effect on RBMEC uptake of GLP-1-FAM” value in experiment [2] (setting [4]) is “blunted”.
Consider `C=C[C@@]1(C)CC(=O)[C@]2(O)[C@@]3(C)[C@@H](O)CCC(C)(C)[C@@H]3[C@H](O)[C@H](OC(C)=O)[C@@]2(C)O1` [forskolin], for which, in experiment [2] (forskolin 10 μM, 5 min, GLP-1-FAM 10 pM for 3 min, n = 6, p < 0.05 vs vehicle), the “effect on RBMEC uptake of GLP-1-FAM” value was “significantly enhanced”.

These data come from article PMC7274078, “Brain Endothelial Cells Regulate Glucagon-Like Peptide 1 Entry Into the Brain via a Receptor-Mediated Process” (Frontiers in Physiology, 2020).
